From patent publication US12648946B2, “Combination of antibody-pyrrolobenzodiazepine derivative conjugate and PARP inhibitor” (DAIICHI SANKYO COMPANY, LIMITED, priority 2019, dated 2026)
Where two headings read alike, the source gives them in different places.

Experiments:
[1] = test system: human breast cancer cell line JIMT-1; assay: Antitumor test (2), subcutaneous xenograft; format: in vivo, mouse; settings: single administration
Method: Mouse: Five- to six-week-old female BALB/c nude mice (Charles River Laboratories Japan, Inc.) were subjected to experiment. Assay and calculation formula: In all of the studies, the major axis and minor axis of a tumor were measured twice a week by using an electronic digital caliper ([…] Corp.), and the tumor volume (mm^3) was calculated. The calculation formula is as shown below. [formula] Each of the anti-CLDN6 antibody-drug conjugate ADC1, the anti-HER2 antibody-drug conjugate ADC2, and the anti-TROP2 antibody-drug conjugate ADC3 was diluted with ABS buffer (10 mM acetate buffer (pH 5.5), 5% sorbitol), and a liquid volume of 10 mL/kg was intravenously administered into the tail vein. […] LLC)/Dulbecco's Phosphate-Buffered Saline, and then a liquid volume of 10 mL/kg was intraperitoneally administered. […] LLC)/Dulbecco's Phosphate-Buffered Saline, and then a liquid volume of 10 mL/kg was orally administered. Niraparib was dissolved in DMSO, diluted with 0.5% methylcellulose, and then a liquid volume of 10 mL/kg was orally administered. The described method is common to Examples 34 to 37. […]

[2] = test system: human ovarian cancer cell line SK-OV-3; assay: Cell growth inhibition test (4); format: cell-based; settings: for IC50: SK-OV-3, 144 h
Method: Cells of the human ovarian cancer cell line SK-OV-3 purchased from ATCC (American Type Culture Collection) were used for evaluation. Cells were prepared with McCoy's 5A (Modified) Medium containing 10% fetal bovine serum (GE Healthcare) (Thermo Fisher Scientific; hereinafter, referred to as McCoy's SA medium) to reach 1.25×10^4 cells/mL, and 80 μL portions of them were added into a 96-well cell culture microplate. After addition of the cells, the cells were cultured at 37° C. and 5% CO2 overnight.
On the next day, 10 μL portions of pyrrolobenzodiazepine derivative A diluted with McCoy's 5A medium to 100 pM, 50 pM, 25 pM, 12.5 pM, 6.25 pM, 3.13 pM, 1.56 pM, or 0.78 pM were added to the microplate. To each well without pyrrolobenzodiazepine derivative A, 10 μL of McCoy's 5A medium was added. Further, 10 μL portions of talazoparib prepared with McCoy's 5A medium to reach 5 nM were added to the microplate. To each well without talazoparib, 10 μL of McCoy's 5A medium was added. Thereafter, the microplate was cultured at 37° C. and 5% CO2 for 6 days. After culturing, the microplate was taken out of the incubator, and left to stand at room temperature for 30 minutes. CellTiter-Glo Luminescent Cell Viability Assay (Promega Corporation) in an amount equivalent to that of the culture solution was added, and stirred using a plate mixer. The microplate was left to stand at room temperature for 10 minutes, and thereafter the amount of emission was measured by using a plate reader (PerkinElmer).
Cell survival rates in wells with derivative A were calculated by using the following formula.
[formula] • a: Mean value of amounts of emission from wells with derivative A • b: Mean value of amounts of emission from wells with medium • IC50 values were calculated by using the following formula. […]
Cell survival rates in wells with derivative A added together with 5 nM talazoparib were calculated by using the following formula. […]

SMILES: Cn1ncnc1[C@H]1c2n[nH]c(=O)c3cc(F)cc(c23)N[C@@H]1c1ccc(F)cc1 [talazoparib]
- tumor growth-suppressing effect ([1]; talazoparib 0.8 mg/kg oral for 5 days from Day 0, JIMT-1): No tumor growth-suppressing effect
- inhibition at 0.005 µM ([2]; 144 h, 5 nM talazoparib alone, SK-OV-3, 6 days): < 10%

SMILES: O=C(c1cc(Cc2n[nH]c(=O)c3ccccc23)ccc1F)N1CCN(C(=O)C2CC2)CC1 [olaparib, reference compound]
- tumor growth-suppressing effect ([1]; olaparib 50 mg/kg i.p. for 5 days from Day 0, JIMT-1): No tumor growth-suppressing effect

SMILES: COc1ccc(C2=CN3C(=O)c4cc(OC)c(OCCCCCOc5cc6c(cc5OC)C(=O)N5CC7(CC7)C[C@H]5C=N6)cc4NC[C@@H]3C2)cc1 [derivative A, (11a′S)-7′-Methoxy-8′-[(5-{[(11aS)-7-methoxy-2-(4-methoxyphenyl)-5-oxo-5,10,11,11a-tetrahydro-1H-pyrrolo[2,1-c][1,4]benzodiazepin-8-yl]oxy}pentyl)oxy]-1′,11a′-dihydro-5′H-spiro[cyclopropane-1,2′-pyrrolo[2,1-c][1,4]benzodiazepine]-5′-one]
- IC50 ([2]; read-out: IC50, growth-suppressing effect, added singly, SK-OV-3, 6 days): 8.1 pM
- IC50 ([2]; read-out: IC50, growth-suppressing effect, added together with 5 nM talazoparib, SK-OV-3, 6 days): 4.6 pM
